Series [1] concerns purified IgG-fusion proteins. The following applies: Tris-acetate buffer pH 7.5, 37° C., 1 h. As to the method:
Reduced glutathione (GSH) at 0, 1 and 3 mM final concentrations was added to Tris-acetate buffered (pH 7.5) solution of purified IgG-fusion proteins, and the mixture of GSH and proteins was incubated at 37° C. for 1 h before SEC-HPLC analysis.
SEC analysis was performed according to the previously published method (Perico et al., 2008) with some modifications. Briefly, the Protein-A purified samples were run on an Agilent 1100 HPLC system (Agilent Technologies, Inc., Palo Alto, Calif.) on Tosoh Bioscience TSK-Gel G3000 SWxl column (7.8 ID×30 cm, 5 μm particles). The mobile phase contained 1× Phosphate Buffered Saline (PBS) at pH 7.4. The flow rate was 0.5 mL/min, and column temperature was controlled at 25° C. The signal was monitored by absorbance at wavelength of 280 nm.
To determine if GSH itself could affect protein aggregation by directly interacting with the proteins, we did in vitro study by adding GSH to Protein-A purified IgG-fusion proteins that were reconstituted in Tris-acetate buffer, and analyzed SEC profiles.

Series [2] deals with CHO cells. The experiment in a line: Shake flask CHO culture in serum free medium: viable cell density, viability, growth rate, productivity (Example 3). The following applies: for final viability: over 0.1 to 10 μM; for Final VCD / Peak VCD / Viability (final, day 10): added two days after inoculation. The series is classed as cell-based, Chinese hamster. As to the method:
The CHO cell line used in this study was subcloned from DG44 parental cells and cultured in a proprietary chemically-defined growth medium.
The experiments were carried out in 250-mL shake flasks (VWR international) with starting volumes of 100 mL and initial cell densities of 6×10^5 cells/mL. The cultures were placed on a shaker platform (VWR international) at 150 rpm and maintained at 37° C. and 6% CO2 for ten days. The cultures were sampled daily and the pH adjustment using 1M sodium carbonate, and fed with glucose and glutamine every two days in order to maintain them at certain levels. Cell density and viability were measured off-line a Bioprofile Analyzer 400 (Nova Biomedical Corporation, Waltham, Mass.).
The eluted protein was quantified using a 10-level standard curve.

Series [3] relates to glutathione reductase. Briefly: Western blot of glutathione reductase in CHO cells. The series is classed as cell-based, Chinese hamster. The following applies: 1 μM RU-486 added one day before 0.1 μM DEX. Background: A western blot detects proteins with antibodies after separation by electrophoresis.
Experimental: After being washed with 1×PBS, approximately 10^7 CHO cells were lysed with 1 mL of Laemmli sample buffer (Bio-Rad Laboratories) and denatured at 90° C. for 5 minutes. The whole cell lysates were separated on a 4-15% SDS-polyacrylamide gel, blotted to 0.45 μm nitrocellulose membranes (Bio-Rad Laboratories), and probed with primary antibodies and secondary antibody. The primary antibody for detection of glutathione reductase was the monoclonal antibody raised against amino acids 391-510 mapping near the C-terminus of glutathione reductase of human origin (Santa Cruz Biotechnology, Santa Cruz, Calif.). […] The primary antibody used for detection of glucocorticoid receptor was anti-human monoclonal antibody (Santa Cruz Biotechnology, Santa Cruz, Calif.). The secondary antibody was horseradish peroxidase (HRP)-conjugated anti-mouse antibody (Santa Cruz Biotechnology, Santa Cruz, Calif.). Membranes were stripped and re-probed with β-actin antibody (Santa Cruz Biotechnology) and HRP-conjugated secondary antibody. Immunodetection was performed with the enhanced chemiluminescence Western blotting detection system (GE Healthcare) and visualized with VersaDoc Imaging System (Bio-Rad Laboratories).
A Western Blot was performed to detect glutathione reductase expression in the whole cell lysates prepared from the CHO cells treated with various concentrations of DEX. […]
Series [4] deals with CHO cells. The experiment in a line: Preliminary experiment: RU-486 on CHO cell viability, growth and metabolic parameters. The series is classed as cell-based, Chinese hamster. From the text: RU-486 is a GR antagonist and often used as a tool drug in many GR related studies.
Series [5] has as its system GILZ. The experiment in a line: Western blot of GILZ protein in CHO cells. The series is classed as cell-based, Chinese hamster. The following applies: in the presence of 1 μM RU-486. As to the method: Approximately 10^7 CHO cells were washed with 1× phosphate buffered saline (PBS) solution, lysed with 1 mL of Laemmli sample buffer (Bio-Rad Laboratories, Hercules, Calif.), and then denatured at 90° C. for 5 minutes. […] Membranes were stripped and re-probed with β-actin antibody (Santa Cruz Biotechnology) and an HRP-conjugated anti-mouse secondary antibody. Immunodetection was performed with the enhanced chemiluminescence Western blotting detection system (GE Healthcare UK Limited Little Chalfont, Buckinghamshire, UK) and visualized with a VersaDoc Imaging System (Bio-Rad Laboratories, Hercules, Calif.).
The blot was also reprobed with the beta-actin antibody as a control to assess equivalent gel loading.

The structures appear in SMILES notation. Where two headings read alike, the source gives them in different places.

Regarding `N[C@@H](CCC(=O)N[C@@H](CS)C(=O)NCC(=O)O)C(=O)O` [GSH, Reduced glutathione], the “reduction rate of percentage of high molecular weight species” value in series [1] (1 mM GSH) is on record as 15.3%; in series [1] (3 mM GSH) it was 27.3%.
Consider `C[C@]12CCC(=O)C=C1CC[C@@H]1[C@@H]2[C@@H](O)C[C@@]2(C)[C@H]1CC[C@]2(O)C(=O)CO` [HYC, hydrocortisone], for which the final viability in series [2] is given as 60.1-75.5%. Besides, in series [2] (treatment concentration 0.1 μM), the “Final VCD” value is reported as 7.86 ×10^6 cells/mL; the “Peak VCD” value was 10.06 ×10^6 cells/mL; the “Viability (final, day 10)” value came out at 60.1%. In series [2] (treatment concentration 1 μM), the “Final VCD” value is on record as 8.15 ×10^6 cells/mL; the “Peak VCD” value is reported as 9.51 ×10^6 cells/mL; the “Viability (final, day 10)” value is listed as 65.1%. In addition, in series [2] (treatment concentration 10 μM), the “Final VCD” value was 7.80 ×10^6 cells/mL; the “Peak VCD” value is on record as 8.44 ×10^6 cells/mL; the “Viability (final, day 10)” value was determined as 75.5%.
Take `C[C@]12C=CC(=O)C=C1CC[C@@H]1[C@@H]2[C@@H](O)C[C@@]2(C)[C@H]1CC[C@]2(O)C(=O)CO` [PRD, prednisolone]: the final viability in series [2] was 69.4-75.5%. Also, in series [2] (treatment concentration 0.1 μM), the “Final VCD” value is reported as 8.26 ×10^6 cells/mL; the “Peak VCD” value is 8.99 ×10^6 cells/mL; the “Viability (final, day 10)” value was determined as 69.4%. Moreover, in series [2] (treatment concentration 1 μM), the “Final VCD” value is listed as 8.79 ×10^6 cells/mL; the “Peak VCD” value is listed as 9.25 ×10^6 cells/mL; the “Viability (final, day 10)” value came out at 76.8%. In addition, in series [2] (treatment concentration 10 μM), the “Final VCD” value is on record as 8.27 ×10^6 cells/mL; the “Peak VCD” value is reported as 8.05 ×10^6 cells/mL; the “Viability (final, day 10)” value is recorded as 77.5%.
Turning to `CC#C[C@]1(O)CC[C@H]2[C@@H]3CCC4=CC(=O)CCC4=C3[C@@H](c3ccc(N(C)C)cc3)C[C@@]21C` [RU-486, mifepristone], the “up-regulatory effect of DEX on glutathione reductase expression” value in series [3] was “attenuated”. In addition, in series [4] (RU-486 at 10 μM), the “effect on cell viability and cell growth rate” value is reported as “significant decrease”. Besides, in series [4] (RU-486 concentrations not higher than 1 μM), the “effect on CHO cell viability and metabolic parameters” value is recorded as “did not affect”. Further, in series [5], the “DEX-induced overexpression of GILZ protein” value is recorded as “significantly decreased”.

(Values after patent US10030064B2, “Mammalian cell culture processes for protein production” (priority 2009, dated 2018).)
